Source: patent US20260226060A1, “SALTS AND CRYSTALLINE FORMS OF COMPOUND A, METHODS OF PREPARATION, AND USES THEREOF” (SHENZHEN NEWDEL BIOTECH CO., LTD., priority 2023, published 2026)
In brackets after ≈: the same amount, converted by molar mass. One block for each compound: values may come before it.

How the values were obtained:
Format in all cases: physicochemical
[1] = Short-term physical stability of anhydrous crystal forms (40° C./75% RH, open, 1 day; XRPD)
Source text: In addition to the mesylate crystalline form I, the other anhydrous crystalline forms were stable under high humidity conditions.

[2] = Rough solubility of free base starting material, visually evaluated by solvent addition
Source text: The rough solubility test of free base of compound A was visually evaluated by solvent addition, and the results were summarized in Table 1.

[3] = Dynamic vapor sorption (DVS) hygroscopicity
Method: The water vapor sorption/desorption data of the samples were collected on a dynamic vapor sorption instrument (proUmid GmbH & Co. KG, Germany). Approximately 50-70 mg of sample was placed in a sample pan previously tared and the weight of the sample was measured accurately.

[4] = Solubility analysis in biological solvents (SGF, FaSSIF, FeSSIF) and water, with pH and XRPD of residual solid
Method: (§1) HPLC analysis was performed by using an Agilent HPLC 1260 series instrument and the HPLC methods used for solubility and stability determinations were shown in Tables 33 and 34, respectively.

[5] = Solid state stability at 60° C. (closed) and 40° C./75% RH (open), XRPD and HPLC purity
Method: (closed) and 40° C./75 RH (open) for 14 days, XRPD analysis and purity analysis were performed at various points of time, and solid-state stability was evaluated.
as §1

Compound: Cc1c(C#Cc2cnc3ccc(N4CCC(O)CC4)nn23)cccc1C(=O)Nc1cc(Cl)cc(C(F)(F)F)c1 [Oxalate crystalline form I]
XPRD Results after short-term physical stability [1]: unchanged

Compound: Cc1c(C#Cc2cnc3ccc(N4CCC(O)CC4)nn23)cccc1C(=O)Nc1cc(Cl)cc(C(F)(F)F)c1 [Free base crystalline form I]
Solubility ([2]; 2-methyltetrahydrofuran, organic solvent or mixture, thermodynamic from solid, 2-methyltetrahydrofuran, read-out: Solubility): > 50000 µg/mL | Solubility ([2]; 2-methyltetrahydrofuran, listed as starting material): 50000 to 100000 µg/mL | Solubility ([2]; acetone, organic solvent or mixture, thermodynamic from solid, acetone, read-out: Solubility): 20000 to 50000 µg/mL (≈ 36.1 to 90.3 mM) | Solubility ([2]; acetonitrile, organic solvent or mixture, thermodynamic from solid, acetonitrile, read-out: Solubility): 1000 to 5000 µg/mL (≈ 1.81 to 9.03 mM) | Solubility ([2]; acetonitrile/water, 19/1 (v/v), organic solvent or mixture, thermodynamic from solid, acetonitrile/water, 19/1 (v/v), read-out: Solubility): 3000 to 5000 µg/mL (≈ 5.42 to 9.03 mM) | Solubility ([2]; butanone, organic solvent or mixture, thermodynamic from solid, butanone, read-out: Solubility): > 50000 µg/mL | Solubility ([2]; butanone, listed as starting material): 50000 to 100000 µg/mL | Solubility ([2]; dichloromethane, organic solvent or mixture, thermodynamic from solid, dichloromethane, read-out: Solubility): 3000 to 5000 µg/mL (≈ 5.42 to 9.03 mM) | Solubility ([2]; ethanol, organic solvent or mixture, thermodynamic from solid, ethanol, read-out: Solubility): 5000 to 20000 µg/mL (≈ 9.03 to 36.1 mM) | Solubility ([2]; ethyl acetate, organic solvent or mixture, thermodynamic from solid, ethyl acetate, read-out: Solubility): 5000 to 20000 µg/mL (≈ 9.03 to 36.1 mM) | Solubility ([2]; isopropanol, organic solvent or mixture, thermodynamic from solid, isopropanol, read-out: Solubility): 20000 to 50000 µg/mL (≈ 36.1 to 90.3 mM) | Solubility ([2]; isopropyl acetate, organic solvent or mixture, thermodynamic from solid, isopropyl acetate, read-out: Solubility): 5000 to 20000 µg/mL (≈ 9.03 to 36.1 mM) | Solubility ([2]; methanol, organic solvent or mixture, thermodynamic from solid, methanol, read-out: Solubility): 3000 to 5000 µg/mL (≈ 5.42 to 9.03 mM) | Solubility ([2]; methyl isobutyl ketone, organic solvent or mixture, thermodynamic from solid, methyl isobutyl ketone, read-out: Solubility): 5000 to 20000 µg/mL (≈ 9.03 to 36.1 mM) | Solubility ([2]; methyl tert-butyl ether, organic solvent or mixture, thermodynamic from solid, methyl tert-butyl ether, read-out: Solubility): 2000 to 5000 µg/mL (≈ 3.61 to 9.03 mM) | Solubility ([2]; n-heptane, organic solvent or mixture, thermodynamic from solid, n-heptane, read-out: Solubility): < 1000 µg/mL | Solubility ([2]; n-heptane, listed as starting material): <1000 µg/mL | Solubility ([2]; tetrahydrofuran, organic solvent or mixture, thermodynamic from solid, tetrahydrofuran, read-out: Solubility): > 50000 µg/mL | Solubility ([2]; tetrahydrofuran, listed as starting material): >100000 µg/mL | Solubility ([2]; toluene, organic solvent or mixture, thermodynamic from solid, toluene, read-out: Solubility): < 1000 µg/mL | Solubility ([2]; toluene, listed as starting material): <1000 µg/mL | Solubility ([2]; water, thermodynamic from solid, water, read-out: Solubility): < 1000 µg/mL | Solubility ([2]; water, listed as starting material): <1000 µg/mL | crystalline form after DVS analysis (XRPD) [3]: remained unchanged | hygroscopicity (DVS) [3]: slightly hygroscopic | DVS The weight gains by vapor sorption % ([3]; 80% RH): 0.8% | DVS The weight gains by vapor sorption % ([3]; 90% RH): 0.9% | DVS The weight gains by vapor sorption % ([3]; 90% RH, listed as free base crystalline form I): ~0.9% | pH in solubility analysis ([4]; FaSSIF (medium pH 6.5), 0.5 h): 6.4 | pH in solubility analysis ([4]; FaSSIF (medium pH 6.5), 2 h): 6.3 | pH in solubility analysis ([4]; FaSSIF (medium pH 6.5), 24 h): 6.4 | XRPD of residual solid in solubility analysis ([4]; FaSSIF, 0.5 h): unchanged | Solubility ([4]; FaSSIF, 0.5 h, 37° C., target 5 mg/mL): 14 µg/mL (≈ 0.0253 mM) | Solubility ([4]; FaSSIF, 0.5 h, 37° C., target 5 mg/mL, listed as free base crystalline form I): 14 µg/mL (≈ 0.0253 mM) | Solubility ([4]; FaSSIF, 2 h, 37° C., target 5 mg/mL): 13 µg/mL (≈ 0.0235 mM) | Solubility ([4]; FaSSIF, 2 h, 37° C., target 5 mg/mL, listed as free base crystalline form I): 13 µg/mL (≈ 0.0235 mM) | XRPD of residual solid in solubility analysis ([4]; FaSSIF, 24 h): unchanged | Solubility ([4]; FaSSIF, 24 h, 37° C., target 5 mg/mL): 11 µg/mL (≈ 0.0199 mM) | pH in solubility analysis ([4]; FeSSIF (medium pH 5.0), 0.5 h): 5.0 | pH in solubility analysis ([4]; FeSSIF (medium pH 5.0), 2 h): 5.0 | pH in solubility analysis ([4]; FeSSIF (medium pH 5.0), 24 h): 5.1 | XRPD of residual solid in solubility analysis ([4]; FeSSIF, 0.5 h): unchanged | Solubility ([4]; FeSSIF, 0.5 h, 37° C., target 5 mg/mL): 181 µg/mL (≈ 0.327 mM) | Solubility ([4]; FeSSIF, 0.5 h, 37° C., target 5 mg/mL, listed as free base crystalline form I): 181 µg/mL (≈ 0.327 mM) | Solubility ([4]; FeSSIF, 2 h, 37° C., target 5 mg/mL): 221 µg/mL (≈ 0.399 mM) | Solubility ([4]; FeSSIF, 2 h, 37° C., target 5 mg/mL, listed as free base crystalline form I): 221 µg/mL (≈ 0.399 mM) | XRPD of residual solid in solubility analysis ([4]; FeSSIF, 24 h): unchanged | Solubility ([4]; FeSSIF, 24 h, 37° C., target 5 mg/mL): 418 µg/mL (≈ 0.755 mM) | pH in solubility analysis ([4]; SGF (medium pH 1.2), 0.5 h): 1.3 | pH in solubility analysis ([4]; SGF (medium pH 1.2), 2 h): 1.4 | pH in solubility analysis ([4]; SGF (medium pH 1.2), 24 h): 1.2 | XRPD of residual solid in solubility analysis ([4]; SGF, 0.5 h): unchanged | Solubility ([4]; SGF, 0.5 h, 37° C., target 5 mg/mL): <LOD | Solubility ([4]; SGF, 0.5 h, 37° C., target 5 mg/mL, listed as free base crystalline form I): <LOD/<LOD/ | Solubility ([4]; SGF, 2 h, 37° C., target 5 mg/mL): <LOD | Solubility ([4]; SGF, 2 h, 37° C., target 5 mg/mL, listed as free base crystalline form I): <LOD/<LOD/ | Solubility ([4]; SGF, 24 h, 37° C., target 5 mg/mL): <LOD | XRPD of residual solid in solubility analysis ([4]; SGF, after 2 h): amorphous | Solid form of residual solids in solubility analysis ([4]; summary over water, SGF, FaSSIF, FeSSIF): remained unchanged in water, FaSSIF and FeSSIF | pH in solubility analysis ([4]; water (medium pH 6.6), 0.5 h): 6.6 | pH in solubility analysis ([4]; water (medium pH 6.6), 2 h): 6.5 | pH in solubility analysis ([4]; water (medium pH 6.6), 24 h): 6.4 | Solubility ([4]; water, 0.5 h, 37° C., target 5 mg/mL): <LOD/<LOD/ | Solubility ([4]; water, 2 h, 37° C., target 5 mg/mL): <LOD/<LOD/ | Solubility ([4]; water, 24 h, 37° C., target 5 mg/mL): <LOD | Purity in stability evaluation ([5]; 0 d): 98.63 Area % | Solid state stability-14 days ([5]; 60° C./Closed and 40° C./75% RH (Open), 14 days): physically and chemically stable | Purity in stability evaluation ([5]; 7 d-40° C./75% RH): 98.60 Area % | XRPD in stability evaluation ([5]; 7 d-40° C./75% RH): unchanged | Purity in stability evaluation ([5]; 7 d-60° C./capped): 98.61 Area % | XRPD in stability evaluation ([5]; 7 d-60° C./capped): unchanged | Purity in stability evaluation ([5]; 14 d-40° C./75% RH): 98.61 Area % | XRPD in stability evaluation ([5]; 14 d-40° C./75% RH): unchanged | Purity in stability evaluation ([5]; 14 d-60° C./capped): 98.70 Area % | XRPD in stability evaluation ([5]; 14 d-60° C./capped): unchanged

Compound: Cc1c(C#Cc2cnc3ccc(N4CCC(O)CC4)nn23)cccc1C(=O)Nc1cc(Cl)cc(C(F)(F)F)c1 [Besylate crystalline form I]
XPRD Results after short-term physical stability [1]: unchanged

The remaining lines, values ahead:

XPRD Results after short-term physical stability [1]: unchanged | hygroscopicity (DVS) [3]: slightly hygroscopic | DVS The weight gains by vapor sorption % ([3]; 80% RH): 0.8% | DVS The weight gains by vapor sorption % ([3]; 90% RH): 1.2%
Compound: Cc1c(C#Cc2cnc3ccc(N4CCC(O)CC4)nn23)cccc1C(=O)Nc1cc(Cl)cc(C(F)(F)F)c1 [L-camphor sulfonate crystalline form II]

XPRD Results after short-term physical stability [1]: new crystalline form | stability of crystalline form under high humidity conditions [1]: unstable
Compound: Cc1c(C#Cc2cnc3ccc(N4CCC(O)CC4)nn23)cccc1C(=O)Nc1cc(Cl)cc(C(F)(F)F)c1 [Mesylate crystalline form I]

Solubility ([4]; FeSSIF, 37 °C, pH 5, fessif, thermodynamic from solid, FeSSIF, read-out: solubility): 200 to 1900 µg/mL (≈ 0.361 to 3.43 mM) | Solubility ([4]; SGF and water): < LOD
Compound: Cc1c(C#Cc2cnc3ccc(N4CCC(O)CC4)nn23)cccc1C(=O)Nc1cc(Cl)cc(C(F)(F)F)c1 [Compound A, N-(3-chloro-5-(trifluoromethyl)phenyl)-3-((6-(4-hydroxypiperidin-1-yl)imidazo [1,2-b]pyridazin-3-yl)ethynyl)-2-methylbenzamide]
